Test system: adults with biopsy-confirmed NASH and fibrosis stage F1B, F2, or F3
Test: MAESTRO-NASH: sensitivity analyses of primary endpoints (consensus, multiple imputation, GEE, tipping point, paired biopsies)
Type: in vivo, human
Conditions: for Fibrosis improvement at Week 52, % / Fibrosis improvement at Week 52, no. / NASH resolution at Week 52, % / NASH resolution at Week 52, no.: GEE analysis; for Difference in percentage of responders, CMH, resmetirom group - placebo, NASH resolution / Difference in percentage of responders, CMH, resmetirom group - placebo, fibrosis improvement / OR of resmetirom group to placebo, NASH resolution / OR of resmetirom group to placebo, fibrosis improvement: GEE model
Method: Consensus reads of digitized images of glass slides by the two central pathologists were conducted in cases where the two pathologists scores disagreed as to whether there was a response for either NASH resolution (ballooning 0,1; 2-point NAS reduction and no worsening of fibrosis) OR ≥1 stage fibrosis reduction with no worsening of NAS (primary endpoints) OR a 2-stage reduction in fibrosis with no worsening of NAS. The study pathologists remained blinded to all clinical data, patient ID, and slide/image identity or time of biopsy. Study personnel remain blinded to patient level data and detailed group analyses. In total 387 total assessments took place requiring four Zoom meetings between the pathologists.
Tipping Point Analyses: This analysis imputed missing placebo responses for NASH resolution (in increments from 0% to 100% placebo imputation) and fibrosis response (in increments from 0% up to 35% placebo imputation) at Week 52 as successful responses in order to determine how many missing responses (which were counted in the primary analysis labels as non-responders) could be imputed before losing statistical significance.
Multiple Imputation Analysis: Multiple imputation analyses were conducted where data for patients with missing response at Week 52 were imputed under the missing at random assumption. Data for patients with missing response data at Week 52 were imputed under the missing at random assumption by running a simulation (100 times) which produces a correlated pair of binary 0/1 data for each patient that represents the patient's response status for each pathologist. The statistics were then calculated for each imputation using the same approach as for the primary endpoint. The normalized results from each dataset were combined using Rubin's rule. (Table 17).
General Estimating Equation (GEE) Model Analysis: A generalized estimation equation (GEE) analysis was performed as a sensitivity analysis. This approach treated the biopsy scores from the two pathologists as repeated measures (i.e. correlated binary outcomes) within a patient. Baseline diabetes status, fibrosis stage and interaction term between pathologist and treatment were also included in the model.
Summary of Observed Cases Using In-window Week 52 Paired Liver Biopsies: Supportive analyses were performed on patients with in-window paired Week 52 biopsies. Missing Week 52 biopsies were not imputed.

[1] = 80 mg (N = 258), in window including a baseline and Week 52 biopsy
[2] = 80 mg (n = 316), (1, 1) = responder per pathologist A and B
[3] = 80 mg (n = 316), Week 52, tipping point analysis, active patients with missing response = non-responders
[4] = 80 mg, (0, 0) = non-responder per both pathologists
[5] = 80 mg, (0, 1) = responder per pathologist B only
[6] = 80 mg, (1, 0) = responder per pathologist A only
[7] = 100 mg (N = 248), in window including a baseline and Week 52 biopsy
[8] = 100 mg (n = 321), (1, 1) = responder per pathologist A and B
[9] = 100 mg (n = 321), Week 52, tipping point analysis, active patients with missing response = non-responders
[10] = 100 mg, (0, 0) = non-responder per both pathologists
[11] = 100 mg, (0, 1) = responder per pathologist B only
[12] = 100 mg, (1, 0) = responder per pathologist A only
[13] = in window including a baseline and Week 52 biopsy
[14] = in-window including a baseline and Week 52 biopsy
[15] = tipping point, Placebo-0% imputed responders (Primary Analysis)
[16] = tipping point, Placebo-10% imputed responders
[17] = tipping point, Placebo-20% imputed responders
[18] = tipping point, Placebo-25% imputed responders
[19] = tipping point, Placebo-30% imputed responders
[20] = tipping point, Placebo-35% imputed responders
[21] = tipping point, Placebo-60% imputed responders
[22] = tipping point, Placebo-67% imputed responders
[23] = tipping point, Placebo-90% imputed responders
[24] = tipping point, Placebo-100% imputed responders

CC(C)c1cc(Oc2c(Cl)cc(-n3nc(C#N)c(=O)[nH]c3=O)cc2Cl)n[nH]c1=O [Resmetirom, 2-(3,5-dichloro-4-((5-isopropyl-6-oxo-1,6-dihydropyridazin-3-yl)oxy)phenyl)-3,5-dioxo-2,3,4,5-tetrahydro-1,2,4-triazine-6-carbonitrile]
% Response, Fibrosis improvement [1]: 29.7%
% Response, NASH resolution [1]: 31.8%
% Response, NASH resolution OR fibrosis improvement (80 mg (N = 258), in-window including a baseline and Week 52 biopsy): 42.2%
Fibrosis improvement at Week 52, % [2]: (16.5) %
Fibrosis improvement at Week 52, no. [2]: 52
NASH resolution at Week 52, % [2]: (19.6) %
NASH resolution at Week 52, no. [2]: 62
% Response, Fibrosis improvement [3]: 24.2%
% Response, NASH resolution [3]: 25.9%
Fibrosis improvement, Consensus (sensitivity), % Difference from PBO (80 mg, Week 52): 12.2%
Fibrosis improvement, Consensus (sensitivity), % Response (80 mg, Week 52): 24.4%
Fibrosis improvement, Multiple imputation (sensitivity), % Difference from PBO (80 mg, Week 52): 11.4%
Fibrosis improvement, Multiple imputation (sensitivity), % Response (80 mg, Week 52): 29.2%
NASH resolution, Consensus (sensitivity), % Difference from PBO (80 mg, Week 52): 16.8%
NASH resolution, Consensus (sensitivity), % Response (80 mg, Week 52): 24.4%
NASH resolution, Multiple imputation (sensitivity), % Difference from PBO (80 mg, Week 52): 17.7%
NASH resolution, Multiple imputation (sensitivity), % Response (80 mg, Week 52): 31.0%
Fibrosis improvement at Week 52, % [4]: (68.0) %
Fibrosis improvement at Week 52, no. [4]: 215
NASH resolution at Week 52, % [4]: (67.7) %
NASH resolution at Week 52, no. [4]: 214
Fibrosis improvement at Week 52, % [5]: (8.9) %
Fibrosis improvement at Week 52, no. [5]: 28
NASH resolution at Week 52, % [5]: (5.1) %
NASH resolution at Week 52, no. [5]: 16
Fibrosis improvement at Week 52, % [6]: (6.6) %
Fibrosis improvement at Week 52, no. [6]: 21
NASH resolution at Week 52, % [6]: (7.6) %
NASH resolution at Week 52, no. [6]: 24
Difference in percentage of responders, CMH, resmetirom group - placebo, NASH resolution (80 mg, Week 52): 17.5
Difference in percentage of responders, CMH, resmetirom group - placebo, fibrosis improvement (80 mg, Week 52): 9.7
OR of resmetirom group to placebo, NASH resolution (80 mg, Week 52): 3.5
OR of resmetirom group to placebo, fibrosis improvement (80 mg, Week 52): 2.0
% Response, Fibrosis improvement [7]: 33.5%
% Response, NASH resolution [7]: 38.7%
% Response, NASH resolution OR fibrosis improvement (100 mg (N = 248), in-window including a baseline and Week 52 biopsy): 50.4%
Fibrosis improvement at Week 52, % [8]: (15.9) %
Fibrosis improvement at Week 52, no. [8]: 51
NASH resolution at Week 52, % [8]: (19.3) %
NASH resolution at Week 52, no. [8]: 62
% Response, Fibrosis improvement [9]: 25.9%
% Response, NASH resolution [9]: 29.9%
Fibrosis improvement, Consensus (sensitivity), % Difference from PBO (100 mg, Week 52): 13.4%
Fibrosis improvement, Consensus (sensitivity), % Response (100 mg, Week 52): 25.5%
Fibrosis improvement, Multiple imputation (sensitivity), % Difference from PBO (100 mg, Week 52): 14.1%
Fibrosis improvement, Multiple imputation (sensitivity), % Response (100 mg, Week 52): 31.9%
NASH resolution, Consensus (sensitivity), % Difference from PBO (100 mg, Week 52): 20.7%
NASH resolution, Consensus (sensitivity), % Response (100 mg, Week 52): 27.7%
NASH resolution, Multiple imputation (sensitivity), % Difference from PBO (100 mg, Week 52): 23.2%
NASH resolution, Multiple imputation (sensitivity), % Response (100 mg, Week 52): 36.0%
Fibrosis improvement at Week 52, % [10]: (64.2) %
Fibrosis improvement at Week 52, no. [10]: 206
NASH resolution at Week 52, % [10]: (59.5) %
NASH resolution at Week 52, no. [10]: 191
Fibrosis improvement at Week 52, % [11]: (9.3) %
Fibrosis improvement at Week 52, no. [11]: 30
NASH resolution at Week 52, % [11]: (4.0) %
NASH resolution at Week 52, no. [11]: 13
Fibrosis improvement at Week 52, % [12]: (10.6) %
Fibrosis improvement at Week 52, no. [12]: 34
NASH resolution at Week 52, % [12]: (17.1) %
NASH resolution at Week 52, no. [12]: 55
Difference in percentage of responders, CMH, resmetirom group - placebo, NASH resolution (100 mg, Week 52): 21.3
Difference in percentage of responders, CMH, resmetirom group - placebo, fibrosis improvement (100 mg, Week 52): 11.0
OR of resmetirom group to placebo, NASH resolution (100 mg, Week 52): 4.2
OR of resmetirom group to placebo, fibrosis improvement (100 mg, Week 52): 2.1
% Difference Resmetirom 80 mg from PBO, Fibrosis improvement [13]: 13.6%
% Difference Resmetirom 80 mg from PBO, NASH resolution [13]: 20.9%
% Difference Resmetirom 100 mg from PBO, Fibrosis improvement [13]: 17.2%
% Difference Resmetirom 100 mg from PBO, NASH resolution [13]: 28.6%
% Difference Resmetirom 80 mg from PBO, NASH resolution OR fibrosis improvement [14]: 23.1%
% Difference Resmetirom 100 mg from PBO, NASH resolution OR fibrosis improvement [14]: 31.2%
% Difference Resmetirom 80 mg from PBO, Fibrosis improvement [15]: 10.2%
% Difference Resmetirom 80 mg from PBO, NASH resolution [15]: 16.4%
% Difference Resmetirom 100 mg from PBO, Fibrosis improvement [15]: 11.8%
% Difference Resmetirom 100 mg from PBO, NASH resolution [15]: 20.7%
% Difference Resmetirom 80 mg from PBO, Fibrosis improvement [16]: 8.8%
% Difference Resmetirom 100 mg from PBO, Fibrosis improvement [16]: 10.4%
% Difference Resmetirom 80 mg from PBO, Fibrosis improvement [17]: 7.5%
% Difference Resmetirom 100 mg from PBO, Fibrosis improvement [17]: 9.1%
% Difference Resmetirom 80 mg from PBO, Fibrosis improvement [18]: 6.9%
% Difference Resmetirom 100 mg from PBO, Fibrosis improvement [18]: 8.5%
% Difference Resmetirom 80 mg from PBO, Fibrosis improvement [19]: 6.2%
% Difference Resmetirom 80 mg from PBO, NASH resolution [19]: 12.4%
% Difference Resmetirom 100 mg from PBO, Fibrosis improvement [19]: 7.8%
% Difference Resmetirom 100 mg from PBO, NASH resolution [19]: 16.7%
% Difference Resmetirom 80 mg from PBO, Fibrosis improvement [20]: 5.5%
% Difference Resmetirom 100 mg from PBO, Fibrosis improvement [20]: 7.1%
% Difference Resmetirom 80 mg from PBO, NASH resolution [21]: 8.3%
% Difference Resmetirom 100 mg from PBO, NASH resolution [21]: 12.7%
% Difference Resmetirom 80 mg from PBO, NASH resolution [22]: 7.4%
% Difference Resmetirom 100 mg from PBO, NASH resolution [22]: 11.7%
% Difference Resmetirom 80 mg from PBO, NASH resolution [23]: 4.2%
% Difference Resmetirom 100 mg from PBO, NASH resolution [23]: 18.6%
% Difference Resmetirom 80 mg from PBO, NASH resolution [24]: 2.6%
% Difference Resmetirom 100 mg from PBO, NASH resolution [24]: 7.0%
